# Results published in article PMC10011554, “BET inhibitor trotabresib in heavily pretreated patients with solid tumors and diffuse large B-cell lymphomas” (Nature Communications, 2023).
# Assay: Adverse events, DLTs, MTD and RP2D in phase I study CC-90010-ST-001 (NCI CTCAE v4.03)
# Assay type: in vivo
# Details: for TRAE: ALT increased / TRAE: Anemia / TRAE: Any TRAE / TRAE: Asthenia / TRAE: Decreased appetite / TRAE: Dehydration / TRAE: Dermatitis acneiform / TRAE: Diarrhoea / TRAE: Dysgeusia / TRAE: Fatigue / TRAE: Hyperglycemia / TRAE: Hypertension / TRAE: Hyponatremia / TRAE: Hypophosphatemia / TRAE: Nausea / TRAE: Neutropenia / TRAE: Platelet count decreased / TRAE: Stomatitis / TRAE: Thrombocytopenia / TRAE: Vomiting: part A 45 mg/day
# Description: The primary endpoints of the study were the safety and tolerability of trotabresib, as well as the MTD and/or RP2D of trotabresib. Safety was assessed using the National Cancer Institute Common Terminology Criteria for Adverse Events v4.03[53].
# The decision to evaluate additional subjects within a dose cohort, a higher dose cohort, intermediate dose cohorts, smaller dose increments, alternate dosing schedules, or declare an MTD will also be determined by the SRC, based on their review of clinical and laboratory safety […]
# 7.2.4. Definition of a Subject Evaluable for DLT
# After the first dose is administered in any cohort during dose escalation, subjects in each cohort […]
# more than one subject per day will be enrolled in a given dose escalation cohort.
# A subject evaluable for DLT is defined as one that: […]
# without experiencing a DLT,
# Subjects non-evaluable for DLT will be replaced. Additional subjects within any dose cohort may be enrolled at the discretion of the SRC. Intra-subject dose escalation will not be allowed during the DLT assessment period.
# 7.2.5. Definition of Maximum Tolerated Dose (MTD) […]
# of MTD is described in Section 7.2.2.
# A variable dose cohort (eg, less frequent dosing) may be evaluated to accurately determine the MTD at the discretion of the SRC.
# 7.2.6. Definition of Dose-Limiting Toxicity (DLT) […]
# used as a guide for the grading of severity of adverse events. A DLT is defined as any of the following toxicities occurring within the DLT assessment unless the event can clearly be […]
# Do se-limiting toxicities are described below:
# • Hyperglycemia meeting any of the following criteria:
# − Grade 3 or greater fasting hyperglycemia (> 250 mg/dL) lasting > 4 days despite optimal medical treatment
# (1 picture or pasted object on this page, not shown here)
# − Hyperglycemia associated with diabetic ketoacidosis or nonketotic hyperosmolar coma regardless of glucose level
# − Hyperglycemia that necessitates dose reduction despite dose interruption and resolution to ≤ grade 1 hyperglycemia within two weeks as described in […]
# • Any Grade 4 non-hematologic toxicity of any duration
# • Any non-hematologic toxicity Grade ≥ 3 EXCEPT for:
# − Grade 3 diarrhea, nausea, or vomiting of ≤ 3 days duration (with optimal medical […]
# − Grade 3 rash of the acneiform, pustular or maculopapular type which resolves to […]
# level with resumption of study drug at the same dose (with optimal medical […]
# − Grade 3 fatigue which resolves to Grade ≤ 2 within 7 days of study drug […]
# the same dose (with optimal medical management).
# • Hematological toxicities as follows:
# − Grade 4 neutropenia lasting > 7 days
# − Grade 4 thrombocytopenia lasting > 7 days, Grade ≥ 3 thrombocytopenia with clinically significant bleeding
# • Any AE, Grade ≥ 2 not specified or exempt above, unless clearly determined to be unrelated to the drug, necessitating dose-level reduction during Cycle 1.
# Isolated laboratory changes without associated clinical signs or symptoms (eg, hypomagnesemia, hypermagnesemia, hypoalbuminemia, hypophosphatemia, lymphocyte count increased or decreased) may not be included in this definition. These findings will be discussed and reviewed […]
# 7.2.7. Criteria for Dose Escalation in the Next Cohort of Subjects
# During Part A, the dose escalation criteria are described in Section 7.2.2.
# 7.2.8. Definition of Stopping Criteria
# During Part A, the dose escalation stopping rules are in Section 7.2.2.
# 7.2.9. Permitted Study Drug Adjustments
# Dose reductions are permitted in any cycle, including Cycle 1.
# • Dose reductions that occur in Cycle 1 during dose escalation will constitute DLT as […]
# [1] = part A (N = 69), 02 Dec 2019 cutoff
smiles,measurement,setting,value
Cn1cc(-c2cc(S(C)(=O)=O)ccc2OCC2CC2)c2ccccc2c1=O [trotabresib],MTD,"Schedule A, 3-days-on/11-days-off (180 mg per 28-day cycle)",30 mg/dose
same,MTD,"Schedule B, 4-days-on/24-days-off (180 mg per 28-day cycle)",45 mg/dose
same,MTD,"Schedule C, 2-days-on/5-days-off (120 mg per 28-day cycle)",15 mg/dose
same,dose intensity below which well tolerated,"human, in vivo",below 200 mg per 28-day cycle
same,further grade 3 and 4 TRAEs reported in one patient each,overall part A population,"Grade 3 essential hypertension, hypokalemia, lipase increased, liver function test abnormal, presyncope, skin hemorrhage, and grade 4 blood creatinine phosphokinase increased, diabetes mellitus, and inappropriate antidiuretic hormone secretion"
same,TRAE: ALT increased,any grade,0%
same,TRAE: Anemia,any grade,28.57%
same,TRAE: Any TRAE,any grade,85.71%
same,TRAE: Asthenia,any grade,14.29%
same,TRAE: Decreased appetite,any grade,0%
same,TRAE: Dehydration,any grade,0%
same,TRAE: Dermatitis acneiform,any grade,0%
same,TRAE: Diarrhoea,any grade,42.86%
same,TRAE: Dysgeusia,any grade,14.29%
same,TRAE: Fatigue,any grade,0%
same,TRAE: Hyperglycemia,any grade,0%
same,TRAE: Hypertension,any grade,0%
same,TRAE: Hyponatremia,any grade,0%
same,TRAE: Hypophosphatemia,any grade,0%
same,TRAE: Nausea,any grade,28.57%
same,TRAE: Neutropenia,any grade,0%
same,TRAE: Platelet count decreased,any grade,0%
same,TRAE: Stomatitis,any grade,42.86%
same,TRAE: Thrombocytopenia,any grade,71.43%
same,TRAE: Vomiting,any grade,14.29%
same,TRAE: ALT increased,grade 3,0%
same,TRAE: Anemia,grade 3,14.29%
same,TRAE: Any TRAE,grade 3,14.29%
same,TRAE: Asthenia,grade 3,0%
same,TRAE: Decreased appetite,grade 3,0%
same,TRAE: Dehydration,grade 3,0%
same,TRAE: Dermatitis acneiform,grade 3,0%
same,TRAE: Diarrhoea,grade 3,0%
same,TRAE: Dysgeusia,grade 3,0%
same,TRAE: Fatigue,grade 3,0%
same,TRAE: Hyperglycemia,grade 3,0%
same,TRAE: Hypertension,grade 3,0%
same,TRAE: Hyponatremia,grade 3,0%
same,TRAE: Hypophosphatemia,grade 3,0%
same,TRAE: Nausea,grade 3,0%
same,TRAE: Neutropenia,grade 3,0%
same,TRAE: Platelet count decreased,grade 3,0%
same,TRAE: Stomatitis,grade 3,0%
same,TRAE: Thrombocytopenia,grade 3,0%
same,TRAE: Vomiting,grade 3,0%
same,TRAE: ALT increased,grade 4,0%
same,TRAE: Anemia,grade 4,0%
same,TRAE: Any TRAE,grade 4,14.29%
same,TRAE: Asthenia,grade 4,0%
same,TRAE: Decreased appetite,grade 4,0%
same,TRAE: Dehydration,grade 4,0%
same,TRAE: Dermatitis acneiform,grade 4,0%
same,TRAE: Diarrhoea,grade 4,0%
same,TRAE: Dysgeusia,grade 4,0%
same,TRAE: Fatigue,grade 4,0%
same,TRAE: Hyperglycemia,grade 4,0%
same,TRAE: Hypertension,grade 4,0%
same,TRAE: Hyponatremia,grade 4,0%
same,TRAE: Hypophosphatemia,grade 4,0%
same,TRAE: Nausea,grade 4,0%
same,TRAE: Neutropenia,grade 4,0%
same,TRAE: Platelet count decreased,grade 4,0%
same,TRAE: Stomatitis,grade 4,0%
same,TRAE: Thrombocytopenia,grade 4,14.29%
same,TRAE: Vomiting,grade 4,0%
same,subjects with at least one DLT,part A (N = 69),6 subjects
same,Grade 3 or 4 TEAE anemia,[1],4.3%
same,Grade 3 or 4 TEAE arthralgia,[1],2.9%
same,Grade 3 or 4 TEAE asthenia,[1],5.8%
same,Grade 3 or 4 TEAE back pain,[1],2.9%
same,Grade 3 or 4 TEAE cognitive disorder,[1],2.9%
same,Grade 3 or 4 TEAE decreased performance status,[1],2.9%
same,Grade 3 or 4 TEAE decreased platelet count,[1],2.9%
same,Grade 3 or 4 TEAE dyspnea,[1],2.9%
same,Grade 3 or 4 TEAE fatigue,[1],2.9%
same,Grade 3 or 4 TEAE hyperglycemia,[1],5.8%
same,Grade 3 or 4 TEAE hypokalemia,[1],2.9%
same,Grade 3 or 4 TEAE hyponatremia,[1],2.9%
same,Grade 3 or 4 TEAE increased ALT,[1],4.3%
same,Grade 3 or 4 TEAE thrombocytopenia,[1],13.0%
same,TEAE abdominal pain,[1],14.5%
same,TEAE anemia,[1],15.9%
same,TEAE asthenia,[1],39.1%
same,TEAE constipation,[1],13.0%
same,TEAE decreased appetite,[1],24.6%
same,TEAE dermatitis acneiform,[1],13.0%
same,TEAE diarrhea,[1],42.0%
